Results taken from patent US8309557B2, “Pyrimidin-4-ylpropanedinitrile derivatives, processes for their preparation and their use as herbicides and plant growth regulators” (Bayer Intellectual Property GmbH, priority 2009, dated 2012).

Experiments:
Format in all cases: in vivo
Matricaria inodora = experiment: Herbicidal effect post-emergence, MATIN
Experimental: (§1) Seeds of mono- and dicotyledonous weed plants and crop plants are planted in wood-fiber pots in sandy loam, covered with earth and grown in a greenhouse under good growth conditions. 2 to 3 weeks after sowing, the test plants are treated in the single-leaf stage. The compounds according to the invention, formulated in the form of wettable powders (WP) or as emulsion concentrates (EC), are then sprayed onto the green plant parts as aqueous suspension or emulsion using an application rate of 600 to 800 l of water/ha (converted) with the addition of 0.2% by weight of wetting agent. After the test plants had been in the greenhouse for ca. 3 weeks under optimum growth conditions, the effect of the preparations is scored visually in comparison with untreated controls (herbicidal effect in percent (%): 100% effect=plants have died off, 0% effect=as control plants).

[1] = system: Polygonum (Fallopia) convolvulus; experiment: Herbicidal effect post-emergence, POLCO
Experimental: as §1

Abutilon theophrasti [2] = experiment: Herbicidal effect post-emergence, ABUTH
Experimental: as §1

Polygonum convolvulus = experiment: Herbicidal effect pre-emergence, POLCO; details: 320 g/hectare, visual grading after 3 weeks vs untreated controls
Text: (§2) Seeds of mono- and dicotyledonous weed plants and crop plants are planted in wood-fiber pots in sandy loam and covered with earth. The compounds according to the invention, formulated in the form of wettable powders (WP) or as emulsion concentrates (EC), are then applied to the surface of the covering earth as aqueous suspension or emulsion at an application rate corresponding to 320 g/hectare at an application rate of 600 to 800 l of water/ha (converted) with the addition of 0.2% wetting agent.
(§3) Following treatment, the pots are placed in a greenhouse and kept under good growth conditions for the test plants. The visual grading of the damage to the test plants is carried out after a test time of 3 weeks in comparison to untreated controls (herbicidal effect in percent (%): 100% effect=plants have died off, 0% effect=as control plants).

Veronica persica [3] = experiment: Herbicidal effect pre-emergence, VERPE; details: 320 g/hectare, visual grading after 3 weeks vs untreated controls
Text: as §2, §3

Veronica persica [4] = experiment: Herbicidal effect post-emergence, VERPE
Experimental: as §1

Lolium multiflorum = experiment: Herbicidal effect pre-emergence, LOLMU
Text: as §2, §3

Setaria viridis [5] = experiment: Herbicidal effect post-emergence, SETVI
Experimental: as §1

Amaranthus retroflexus [6] = experiment: Herbicidal effect pre-emergence, AMARE; details: for Effect in % in respect of stated plant, AMARE: 320 g/hectare, visual grading after 3 weeks vs untreated controls
Text: as §2, §3

Ipomoea purpurea [7] = experiment: Herbicidal effect post-emergence, PHBPU
Experimental: as §1

Abutilon theophrasti [8] = experiment: Herbicidal effect pre-emergence, ABUTH; details: for Effect in % in respect of stated plant, ABUTH: 320 g/hectare, visual grading after 3 weeks vs untreated controls
Text: as §2, §3

Echinochloa crus-galli [9] = experiment: Herbicidal effect post-emergence, ECHCG
Experimental: as §1

Amaranthus retroflexus [10] = experiment: Herbicidal effect post-emergence, AMARE
Experimental: as §1

Setaria viridis [11] = experiment: Herbicidal effect pre-emergence, SETVI; details: for Effect in % in respect of stated plant, SETVI: 320 g/hectare, visual grading after 3 weeks vs untreated controls
Text: as §2, §3

[12] = system: Tripleurospermum inodorum; experiment: Herbicidal effect pre-emergence, MATIN; details: 320 g/hectare, visual grading after 3 weeks vs untreated controls
Text: as §2, §3

Viola tricolor [13] = experiment: Herbicidal effect post-emergence, VIOTR
Experimental: as §1

Viola tricolor [14] = experiment: Herbicidal effect pre-emergence, VIOTR; details: 320 g/hectare, visual grading after 3 weeks vs untreated controls
Text: as §2, §3

Stellaria media [15] = experiment: Herbicidal effect post-emergence, STEME
Experimental: as §1

Alopecurus myosuroides = experiment: Herbicidal effect pre-emergence, ALOMY
Text: as §2, §3

Ipomoea purpurea [16] = experiment: Herbicidal effect pre-emergence, PHBPU; details: 320 g/hectare, visual grading after 3 weeks vs untreated controls
Text: as §2, §3

Stellaria media [17] = experiment: Herbicidal effect pre-emergence, STEME; details: 0.32 kg of active substance per hectare, visual grading after 3 weeks
Text: as §2, §3

Echinochloa crus-galli [18] = experiment: Herbicidal effect pre-emergence, ECHCG; details: 0.32 kg of active substance per hectare, visual grading after 3 weeks
Text: as §2, §3

Sinapis alba = experiment: Herbicidal effect pre-emergence, Sinapis alba; details: 0.32 kg of active substance per hectare, visual grading after 3 weeks
Text: as §2, §3

Avena fatua = experiment: Herbicidal effect pre-emergence, Avena fatua; details: 0.32 kg of active substance per hectare, visual grading after 3 weeks
Text: as §2, §3

[19] = 320 g/hectare, visual grading after 3 weeks vs untreated controls
[20] = 0.32 kg of active substance per hectare, visual grading after 3 weeks

Row | Compound | Effect in % in respect of stated plant, MATIN (Matricaria inodora) | Effect in % in respect of stated plant, POLCO [1] | Effect in % in respect of stated plant, ABUTH (Abutilon theophrasti [2]) | Effect in % in respect of stated plant, POLCO (Polygonum convolvulus) | Effect in % in respect of stated plant, VERPE (Veronica persica [3]) | Effect in % in respect of stated plant, VERPE (Veronica persica [4]) | Effect in % in respect of stated plant, SETVI (Setaria viridis [5]) | Effect in % in respect of stated plant, AMARE (Amaranthus retroflexus [6]) | Effect in % in respect of stated plant, PHBPU (Ipomoea purpurea [7]) | Effect in % in respect of stated plant, ABUTH (Abutilon theophrasti [8]) | Effect in % in respect of stated plant, ECHCG (Echinochloa crus-galli [9]) | Effect in % in respect of stated plant, AMARE (Amaranthus retroflexus [10]) | Effect in % in respect of stated plant, SETVI (Setaria viridis [11]) | Effect in % in respect of stated plant, MATIN [12] | Effect in % in respect of stated plant, VIOTR (Viola tricolor [13]) | Effect in % in respect of stated plant, VIOTR (Viola tricolor [14]) | Effect in % in respect of stated plant, STEME (Stellaria media [15]) | Effect in % in respect of stated plant, PHBPU (Ipomoea purpurea [16]) | further results
1 | N.N#CC(C#N)c1nc(-c2ccc(C(F)(F)F)cc2)nc(N)c1Cl [Compound 318] | 90% | 80% | 80% | 80% | 100% | 90% | – | – | – | – | – | – | – | – | – | – | – | – | –
2 | COc1c(Cl)ccc(-c2nc(N)c(Cl)c(C(C#N)C#N)n2)c1F.N [Compound 359] | 90% | 90% | 80% | – | 100% | – | 80% | 100% | 80% | 90% | 90% | 100% | 90% | 100% | – | – | – | – | Effect in % in respect of stated plant, LOLMU (Lolium multiflorum; [19]): 80%
3 | N.N#CC(C#N)c1nc(-c2ccc(Cl)cc2)nc(N)c1Cl [Ex. No. 308, Ammonium [6-amino-5-chloro-2-(4-chlorophenyl)pyrimidin-4-yl](dicyano)methanide] | 93% | 100% | 93% | 90% | 100% | 97% | 87% | 100% | 90% | 80% | 88% | 100% | 90% | 90% | 88% | 100% | 92% | 95% | Effect in % in respect of stated plant, ALOMY (Alopecurus myosuroides; [19]): 80%
4 | N#CC(C#N)c1nc(-c2ccc([N+](=O)[O-])cc2)nc(N)c1Cl [compound 9] | – | – | – | – | 80% | – | – | – | – | – | – | – | – | – | – | 90% | – | – | herbicidal effect (Lolium multiflorum; [20]): very good herbicidal effect; herbicidal effect (Stellaria media [17]): very good herbicidal effect; herbicidal effect (Echinochloa crus-galli [18]): very good herbicidal effect; herbicidal effect (Amaranthus retroflexus [6]; [20]): very good herbicidal effect; herbicidal effect (Abutilon theophrasti [8]; [20]): very good herbicidal effect; herbicidal effect (Alopecurus myosuroides; [20]): very good herbicidal effect; herbicidal effect (Sinapis alba): very good herbicidal effect; herbicidal effect (Setaria viridis [11]; [20]): very good herbicidal effect; herbicidal effect (Avena fatua): very good herbicidal effect
5 | N#CC(C#N)c1nc(C2CC2)nc(N)c1Cl [compound 249] | 90% | 90% | 83% | 90% | 90% | 100% | – | 90% | 90% | 90% | 90% | 93% | – | 90% | 87% | 95% | 80% | 85% | –
